Laboratory results taken from patent US12606552B2, “Bifunctional compound, preparation method therefor, and use thereof” (SUZHOU KINTOR PHARMACEUTICALS, INC., priority 2020, dated 2026).

Target: T1, AR (Homo sapiens, UniProt P10275, T878A)
T1 sequence (P10275 1-920 T878A): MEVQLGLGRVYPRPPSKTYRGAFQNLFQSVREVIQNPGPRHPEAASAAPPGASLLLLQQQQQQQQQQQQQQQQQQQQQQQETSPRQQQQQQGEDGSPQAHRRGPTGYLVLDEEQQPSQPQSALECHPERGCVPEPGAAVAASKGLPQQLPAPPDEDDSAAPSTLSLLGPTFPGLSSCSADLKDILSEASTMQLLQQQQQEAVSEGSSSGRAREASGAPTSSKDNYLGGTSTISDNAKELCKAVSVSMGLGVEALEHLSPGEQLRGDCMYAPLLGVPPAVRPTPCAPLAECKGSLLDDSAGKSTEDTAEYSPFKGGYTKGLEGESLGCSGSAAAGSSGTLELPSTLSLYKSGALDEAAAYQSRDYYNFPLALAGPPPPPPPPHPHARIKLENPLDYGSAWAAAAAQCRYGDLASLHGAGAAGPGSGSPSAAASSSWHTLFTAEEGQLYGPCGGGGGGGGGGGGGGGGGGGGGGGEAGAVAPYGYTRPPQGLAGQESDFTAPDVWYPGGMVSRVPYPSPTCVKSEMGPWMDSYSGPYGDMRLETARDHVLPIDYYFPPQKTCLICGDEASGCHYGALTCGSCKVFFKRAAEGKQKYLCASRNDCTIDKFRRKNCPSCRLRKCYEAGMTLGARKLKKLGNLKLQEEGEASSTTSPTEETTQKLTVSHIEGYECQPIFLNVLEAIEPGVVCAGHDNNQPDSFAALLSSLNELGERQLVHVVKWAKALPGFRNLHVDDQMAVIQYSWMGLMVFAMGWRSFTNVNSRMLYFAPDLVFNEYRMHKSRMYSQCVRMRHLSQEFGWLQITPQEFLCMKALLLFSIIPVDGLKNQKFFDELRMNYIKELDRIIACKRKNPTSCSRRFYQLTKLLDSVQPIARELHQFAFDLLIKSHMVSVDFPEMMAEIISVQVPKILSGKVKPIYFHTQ
Test: Effects of compounds on AR expression in LNCaP cells (ELISA, DC50)
Type: cell-based
Set-up: Measurement of the Effects of Drugs on the Expression of AR in Cells by ELISA Method; endogenous in cells; host or cells: LNCaP
Settings: 24 hours of drug treatment, AR by ELISA
Method: Activity Assay Example 1: Effects of Compounds on AR Expression in LNCaP Cells
1. Cell Line and Cell Culture
Human prostate cancer cells LNCaP (Shanghai Chinese Academy of Sciences Cell Bank). LNCaP was cultured in 1640 medium containing 10% fetal bovine serum. The cells grow in clusters, with weak adhesion to the bottom of the culture flask, slow proliferation, with a multiplication time of 72 h. The cells are closely adhered to each other and need to be digested with 0.05% trypsin containing 0.025% EDTA. The cells were passaged every 3 days. The cells were cultured at 37° C. and 5% CO2 in a humidified incubator
2. Cell plating: The supernatant was discarded, and the Lncap cells in the logarithmic growth phase were taken, washed with PBS once, and added with appropriate 0.05% trypsin digestion solution to be fully digested into single cell suspension, and centrifuged, resuspended and counted to make the number of cells about 15,000 per well, then inoculated in a 96-well plate, placed at 37° C., 5% CO2 and cultured overnight for 24 h.
3. Preparation and Addition of Compound Solutions
About 2 mg of each compound was weighed and dissolved in DMSO to make the stock solution with a concentration of 10 mmol/L. Dilution process (final concentration dilution: 2, 0.667, 0.222, 0.074, 0.0245, 0.008, 0.003, 0.001, 0.0003, 0.0001 μmol/L): 10 centrifuge tubes with a volume of 1.5 mL were taken and numbered 1, 2, 3, 4, 5, 6, 7, 8, 9, and 10, 80 μL DMSO was added to tube No. 1, and 60 μL DMSO was added to tubes No. 2 to No. 10, 20 μL of the stock solution was pipetted to tube No. 1 and mixed well; 30 μL was pipetted from tube No. 1 into tube No. 2 and mixed well. 30 μL was pipetted from tube No. 2 into tube No. 3 and mixed well, and so forth, to obtain samples No. 4-10, and to obtain working solutions of compounds of different concentrations respectively. 2 μL was pipetted from the above-mentioned tubes No. 1-10 into each corresponding sterile deep-well plates, added with 198 μL of culture medium, and mixed well. 11 ul was added to each well of the 96-well cell plate cultured overnight to obtain the corresponding desired concentrations (2, 0.667, 0.222, 0.074, 0.0245, 0.008, 0.003, 0.001, 0.0003, 0.0001 μmol/L).
4. Measurement of the Effects of Drugs on the Expression of AR in Cells by ELISA Method
After 24 hours of drug treatment, the supernatant was removed, and 200 μL of PBS was added to wash cells, and then the supernatant was removed, and 100 μL of cell lysate was added to lyse cells on ice for 20 min, then the cell lysate was centrifuged at 4000 rpm for 20 min at 4° C. and the supernatant was taken for later use. The measurement steps of the supernatant were according to the ELISA kit instructions:
4.1 The slats required for the test were taken out from the sealed bag that has been equilibrated to room temperature. Please put the unused slats and desiccant back into the aluminum foil bag and compress the self-sealing strip, seal the bag, and store at 4° C.
4.2 Standards and sample diluents were added to blank wells, and different concentrations of standards (10 ul/well) and sample diluents (90 ul/well) were added to the remaining corresponding wells, and the reaction wells were sealed with sealing tape, and refrigerated at 4° C. overnight.
4.3 Primary antibody was diluted with dilution buffer to the corresponding concentration and added to each well in 100 ul/well. The reaction wells were sealed with sealing tape and incubated at 37° C. for 60 min.
4.4 Secondary antibody was diluted with dilution buffer to the corresponding concentration and added to each well in 100 ul/well. The reaction wells were sealed with sealing tape and incubated at 37° C. for 30 min.
4.5 The reaction wells were added with 100 ul/well of substrate (TMB) and incubated at room temperature for 30 min.
4.6 The reaction wells were added with 100 ul/well of stop solution, mixed well and then the OD450 value was measured with a microplate reader. […]

**Q.** Which DC50 does the source give for `Cc1ncsc1-c1ccc(CNC(=O)[C@@H]2C[C@@H](O)CN2C(=O)[C@@H](NC(=O)CCCCCNC(=O)c2ccc(-c3ccc(N4C(=S)N(c5ccc(C#N)c(C(F)(F)F)c5F)C(=O)C4(C)C)cn3)cc2)C(C)(C)C)cc1` [Compound A53] here?
**A.** Its DC50 is 0.149 µM.

**Q.** `Cc1ncsc1-c1ccc(CNC(=O)[C@@H]2C[C@@H](O)CN2C(=O)[C@@H](NC(=O)CCN2CCC(NC(=O)c3ccc(-c4ccc(N5C(=S)N(c6ccc(C#N)c(C(F)(F)F)c6F)C(=O)C5(C)C)cn4)cc3)C2)C(C)(C)C)cc1` (stereo partly drawn) [Compound A56] was tested. Which DC50 did it give?
**A.** Its DC50 is 0.704 µM.

**Q.** `Cc1ncsc1-c1ccc(CNC(=O)[C@@H]2C[C@@H](O)CN2C(=O)[C@@H](NC(=O)CCN2CCN(C(=O)c3ccc(-c4ccc(N5C(=S)N(c6ccc(C#N)c(C(F)(F)F)c6F)C(=O)C5(C)C)cn4)cc3)CC2)C(C)(C)C)cc1` [Compound A58] was tested. Which DC50 did it give?
**A.** Its DC50 is 0.133 µM.

**Q.** `Cc1ncsc1-c1ccc(CNC(=O)[C@@H]2C[C@@H](O)CN2C(=O)[C@@H](NC(=O)[C@H]2CC[C@H](CNC(=O)c3ccc(-c4ccc(N5C(=S)N(c6ccc(C#N)c(C(F)(F)F)c6F)C(=O)C5(C)C)cn4)cc3)CC2)C(C)(C)C)cc1` [Compound A59] was tested. Which DC50 did it give?
**A.** The DC50 was 0.0486 µM.

**Q.** How did the DC50 turn out when `Cc1ncsc1-c1ccc(CNC(=O)[C@@H]2C[C@@H](O)CN2C(=O)[C@@H](NC(=O)c2ccc(CNC(=O)c3ccc(-c4ccc(N5C(=S)N(c6ccc(C#N)c(C(F)(F)F)c6F)C(=O)C5(C)C)cn4)cc3)cc2)C(C)(C)C)cc1` [Compound A60] was run?
**A.** Its DC50 is 0.0829 µM.

**Q.** `Cc1ncsc1-c1ccc(CNC(=O)[C@@H]2C[C@@H](O)CN2C(=O)[C@@H](NC(=O)C2CCN(C3CCN(C(=O)c4ccc(-c5ccc(N6C(=S)N(c7ccc(C#N)c(C(F)(F)F)c7F)C(=O)C6(C)C)cn5)cc4)CC3)CC2)C(C)(C)C)cc1` [Compound A61] was tested. Which DC50 did it give?
**A.** Its DC50 is 0.268 µM.

**Q.** `Cc1ncsc1-c1ccc(CNC(=O)[C@@H]2C[C@@H](O)CN2C(=O)[C@@H](NC(=O)CCCN2CC(Oc3ccc(-c4ccc(N5C(=S)N(c6ccc(C#N)c(C(F)(F)F)c6F)C(=O)C5(C)C)cn4)cc3)C2)C(C)(C)C)cc1` [Compound A64] was tested. Which DC50 did it give?
**A.** The DC50 was 0.233 µM.

**Q.** How did the DC50 turn out when `Cc1ncsc1-c1ccc(CNC(=O)[C@@H]2C[C@@H](O)CN2C(=O)[C@@H](NC(=O)CCN2CCC(Oc3ccc(-c4ccc(N5C(=S)N(c6ccc(C#N)c(C(F)(F)F)c6F)C(=O)C5(C)C)cn4)cc3)CC2)C(C)(C)C)cc1` [Compound A65] was run?
**A.** Its DC50 is 0.0324 µM.

**Q.** With `Cc1ncsc1-c1ccc(CNC(=O)[C@@H]2C[C@@H](O)CN2C(=O)[C@@H](NC(=O)COCCCC(=O)N(Cc2ccccc2)c2ccc(-c3ccc(N4C(=S)N(c5ccc(C#N)c(C(F)(F)F)c5F)C(=O)C4(C)C)cn3)cc2)C(C)(C)C)cc1` [Compound A67] as the compound, how does the DC50 read?
**A.** Its DC50 is 0.248 µM.

**Q.** How did the DC50 turn out when `Cc1ncsc1-c1ccc(CNC(=O)[C@@H]2C[C@@H](O)CN2C(=O)[C@@H](NC(=O)COCCCCNc2ccc(-c3ccc(N4C(=S)N(c5ccc(C#N)c(C(F)(F)F)c5F)C(=O)C4(C)C)cn3)cc2)C(C)(C)C)cc1` [Compound A68] was run?
**A.** Its DC50 is > 2 µM.

**Q.** With `Cc1ncsc1-c1ccc(CNC(=O)[C@@H]2C[C@@H](O)CN2C(=O)[C@@H](NC(=O)CN2CCN(CCc3ccc(-c4ccc(N5C(=S)N(c6ccc(C#N)c(C(F)(F)F)c6F)C(=O)C5(C)C)cn4)cc3)CC2)C(C)(C)C)cc1` [Compound A69] as the compound, how does the DC50 read?
**A.** Its DC50 is 0.0394 µM.

**Q.** Which DC50 does the source give for `Cc1ncsc1-c1ccc(CNC(=O)[C@@H]2C[C@@H](O)CN2C(=O)[C@@H](NC(=O)COCCCCOc2ccc(-c3ncc(N4C(=S)N(c5ccc(C#N)c(C(F)(F)F)c5F)C(=O)C4(C)C)cc3C(F)(F)F)cc2C#N)C(C)(C)C)cc1` [Compound A75] here?
**A.** Its DC50 is 0.0894 µM.

**Q.** Which DC50 does the source give for `Cc1ncsc1-c1ccc(CNC(=O)[C@@H]2C[C@@H](O)CN2C(=O)[C@@H](NC(=O)COCCOCCOc2ccc(-c3ccc(N4C(=S)N(c5ccc(C#N)c(C(F)(F)F)c5F)C(=O)C4(C)C)cn3)cc2)C(C)(C)C)cc1` [Compound A76] here?
**A.** The DC50 was 0.04 µM.

**Q.** For `Cc1ncsc1-c1ccc(CNC(=O)[C@@H]2C[C@@H](O)CN2C(=O)[C@@H](NC(=O)CCn2cc(COc3ccc(-c4ccc(N5C(=S)N(c6ccc(C#N)c(C(F)(F)F)c6F)C(=O)C5(C)C)cn4)cc3)nn2)C(C)(C)C)cc1` [Compound A80], which DC50 is on record?
**A.** The DC50 was 0.116 µM.

**Q.** `Cc1ncsc1-c1ccc(CNC(=O)[C@@H]2C[C@@H](O)CN2C(=O)[C@@H](NC(=O)CCCn2cc(COc3ccc(-c4ccc(N5C(=S)N(c6ccc(C#N)c(C(F)(F)F)c6F)C(=O)C5(C)C)cn4)cc3)nn2)C(C)(C)C)cc1` [Compound A81] was tested. Which DC50 did it give?
**A.** The DC50 was 0.0633 µM.

**Q.** Which DC50 does the source give for `Cc1ncsc1-c1ccc(CNC(=O)[C@@H]2C[C@@H](O)CN2C(=O)[C@@H](NC(=O)CN2CCN(Cc3ccc(-c4ccc(N5C(=S)N(c6ccc(C#N)c(C(F)(F)F)c6F)C(=O)C5(C)C)cn4)cc3)CC2)C(C)(C)C)cc1` [Compound A86] here?
**A.** Its DC50 is 0.0693 µM.

**Q.** For `Cc1ncsc1-c1ccc(CNC(=O)[C@@H]2C[C@@H](O)CN2C(=O)[C@@H](NC(=O)COCCOc2c(F)cc(-c3ncc(N4C(=S)N(c5ccc(C#N)c(C(F)(F)F)c5F)C(=O)C4(C)C)cc3F)cc2F)C(C)(C)C)cc1` [Compound A87], which DC50 is on record?
**A.** The DC50 was 0.0546 µM.

**Q.** Which DC50 does the source give for `Cc1ncsc1-c1ccc(CNC(=O)[C@@H]2C[C@@H](O)CN2C(=O)[C@@H](NC(=O)COCCOc2ccc(-c3ncc(N4C(=S)N(c5ccc(C#N)c(C(F)(F)F)c5F)C(=O)C4(C)C)cc3C(F)(F)F)cc2)C(C)(C)C)cc1` [Compound A92] here?
**A.** The DC50 was 0.0996 µM.

**Q.** With `Cc1ncsc1-c1ccc(CNC(=O)[C@@H]2C[C@@H](O)CN2C(=O)[C@@H](NC(=O)CCCn2cc(COc3ccc(-c4ncc(N5C(=S)N(c6ccc(C#N)c(C(F)(F)F)c6F)C(=O)C5(C)C)cc4F)cc3F)nn2)C(C)(C)C)cc1` [Compound A96] as the compound, how does the DC50 read?
**A.** Its DC50 is 0.0549 µM.

**Q.** With `Cc1ncsc1-c1ccc(CNC(=O)[C@@H]2C[C@@H](O)CN2C(=O)[C@@H](NC(=O)COCCCCn2cc(-c3ccc(N4C(=S)N(c5ccc(C#N)c(C(F)(F)F)c5F)C(=O)C4(C)C)cn3)ccc2=O)C(C)(C)C)cc1` [Compound A98] as the compound, how does the DC50 read?
**A.** Its DC50 is 0.281 µM.

**Q.** Which DC50 does the source give for `Cc1ncsc1-c1ccc(CNC(=O)[C@@H]2C[C@@H](O)CN2C(=O)[C@@H](NC(=O)CCN2CCC(Oc3ccc(-c4ncc(N5C(=S)N(c6ccc(C#N)c(C(F)(F)F)c6F)C(=O)C5(C)C)cc4F)cc3F)CC2)C(C)(C)C)cc1` [Compound A104] here?
**A.** Its DC50 is 0.241 µM.
